# Data as given in US9908890B2, “Selective inhibitors of constitutive androstane receptor” (ST. JUDE CHILDREN'S RESEARCH HOSPITAL, priority 2014, dated 2018).
# Tests used:
# [1] = biological target: T1, hCAR1 interaction with coregulators (SRC-1, TIF2, SMRTα, mNCoR) (Homo sapiens, UniProt Q14994); test: Mammalian two-hybrid assay (HEK293T cells); format: cell-based
# T1 construct: expressed in transfected cells; host or cells: HEK293T
# T1 sequence (Q14994 1-348 isoform Q14994-2): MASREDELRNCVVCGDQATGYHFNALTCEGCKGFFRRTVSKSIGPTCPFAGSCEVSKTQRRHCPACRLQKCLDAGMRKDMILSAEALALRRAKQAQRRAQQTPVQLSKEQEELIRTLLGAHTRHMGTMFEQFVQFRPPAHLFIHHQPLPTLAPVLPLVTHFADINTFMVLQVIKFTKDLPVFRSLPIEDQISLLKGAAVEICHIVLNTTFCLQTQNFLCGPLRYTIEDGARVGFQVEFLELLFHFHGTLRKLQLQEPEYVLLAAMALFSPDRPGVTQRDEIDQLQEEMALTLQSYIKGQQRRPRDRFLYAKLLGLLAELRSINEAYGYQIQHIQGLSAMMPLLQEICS
# Description: Briefly, mammalian two-hybrid assays were set up in HEK293T cells transfected with expression plasmids encoding VP16AD-hCAR1 fusion protein, GAL4DBD-co-activator fusion proteins, and the reporter plasmid pG5luc. […] Fold interaction represents pG5luc reporter activity normalized to the Renilla luciferase internal control. Data presented are the mean±SD of at least three independent transfections. *, p<0.001 compared to DMSO treatment within the indicated co-activator set. […] Briefly, mammalian two-hybrid assays were set up in HEK293T cells transfected with expression plasmids encoding VP16AD-hCAR1 fusion protein, GAL4DBD-co-repressor fusion proteins, and the reporter plasmid pG51luc. […] Fold interaction represents pG5luc reporter activity normalized to the Renilla luciferase internal control. Data presented are the mean±SD of at least three independent transfections. *, p<0.001 compared to DMSO treatment within the indicated co-repressor set.
# The pACT-hCAR1, pBIND-coregulator peptide and pG5-luc were cotransfected into HEK293T cells. Renilla luciferase is constitutively expressed from the pBIND plasmids. The Dual-Glo Luciferase Assay (Promega) was used to measure pG5-luc luciferase activity. The relative luciferase activity was determined by normalizing firefly luciferase activity with Renilla luciferase activity.
# [2] = biological target: T2, hPXR (Homo sapiens, UniProt O75469); test: PXR luciferase assay (HepG2-PXR Clone 1, CYP3A4-luciferase reporter); format: cell-based
# T2 construct: expressed in transfected cells
# T2 sequence (O75469 1-434): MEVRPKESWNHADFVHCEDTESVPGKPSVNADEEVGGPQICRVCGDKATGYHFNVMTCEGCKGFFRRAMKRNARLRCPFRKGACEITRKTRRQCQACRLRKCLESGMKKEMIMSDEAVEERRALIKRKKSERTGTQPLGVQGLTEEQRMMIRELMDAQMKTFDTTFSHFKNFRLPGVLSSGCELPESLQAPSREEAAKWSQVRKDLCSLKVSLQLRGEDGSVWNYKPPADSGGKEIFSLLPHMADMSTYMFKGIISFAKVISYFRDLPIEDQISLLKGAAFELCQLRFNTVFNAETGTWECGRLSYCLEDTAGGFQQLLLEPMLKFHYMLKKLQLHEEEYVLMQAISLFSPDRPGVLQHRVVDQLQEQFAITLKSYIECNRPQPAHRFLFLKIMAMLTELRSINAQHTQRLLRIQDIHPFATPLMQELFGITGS
# Procedure: Luciferase activity was measured 24 h after treatment by using SteadyLite™ reagent. […] GraphPad Prism was used to fit the data into a dose-response equation to derive IC50 values. […] The percentage of PXR activation was calculated by setting that of DMSO-treated cells (negative control) to 0%, and that of 5 μM rifampicin-treated cells (positive control) to 100%. HepG2 cells stably expressing hPXR and CYP3A4-luciferase reporter (PXR Clone 1) were treated with indicated compounds for 24 h. Luciferase activity was measured 24 h after treatment by using SteadyLite reagent. The percentage of PXR activation was calculated by setting that of DMSO-treated cells (negative control) to 0%, and that of 5 μM rifampicin-treated cells (positive control) to 100%.
# Briefly, HepG2 cells were transiently transfected with plasmids expressing hCAR1, CYP3A4-luc reporter and control plasmid pTK-RL. […] Dual luciferase activity was measured 24 h after treatment using Dual-Glo® luciferase reagent. Renilla luciferase was used to normalize firefly luciferase values and % Luciferase activity was calculated by setting DMSO to 100%. p<0.001, when comparing DMSO to all treatments except 5 μM rifampicin. […] Briefly, HepG2-PXR Clone 1 cells were treated with CINPA1 in a dose-responsive format (40 μM to 2 nM, 1-to-2 dilutions for 10 concentrations) in the presence or absence of 5 μM rifampicin (Rif) for 24 h before luciferase assay using SteadyLite™. % PXR activity was calculated by setting DMSO (negative. control) treated cells to 0% and 5 μM rifampicin (positive. control) treated cells to 100%. GraphPad Prism was used to fit the data into a dose-response stimulation equation to derive IC50 values. […] Briefly, U2OS cells were transiently transfected with plasmids expressing hCAR1, CYP2B6-luc reporter and control plasmid pTK-RL. […] Dual luciferase activity was measured 24 h after treatment. Renilla luciferase was used to normalize firefly luciferase values and % Luciferase activity was calculated by setting DMSO to 100%. *, p<0.0001 comparing CITCO+CINPA1 to CITCO treated cells. […]
compound,measurement,setting,value
CCOC(=O)Nc1ccc2c(c1)N(C(=O)CN(CC)CC)c1ccccc1CC2 [CINPA1],"corepressor (SMRTα, mNCoR) interaction with CAR-LBD","[1]; 5 μM CINPA1, 24 h",increased interaction
same,"coactivator (SRC-1, TIF-2) binding to CAR-LBD","[1]; 5 μM CINPA1, presence or absence of CITCO, 24 h",reduced SRC-1 and TIF-2 coactivator binding
same,inhibition of PXR-mediated gene expression,"[2]; 18 μM CINPA1 with 5 μM rifampicin, 24 h",weakly inhibited PXR-mediated gene expression
same,agonistic effect on PXR-regulated gene expression,[2]; 40 μM,did not exhibit any agonistic effect
same,IC50,"[2]; in the presence of 5 μM rifampicin, read-out: IC50, antagonist of PXR",6.6 µM
